Data from patent publication US8349880B2, “Bicyclic compounds for the reduction of beta-amyloid production” (Bristol-Myers Squibb Company, priority 2009, dated 2013).

Tested on: Aβ1-42 production
Assay: Cellular assay for inhibition of Aβ1-42 production (H4 APP751 SWE clone 8.20)
Format: cell-based
Conditions: 19 h, H4 APP751 SWE clone 8.20 cells, 19 h incubation; read-out: Activity Rating (Aβ42 cellular IC50, given as a number)
How it was run: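 H4 cells stably expressing APP751 with the Swedish mutation (1.5×10^4 cells/well) incubated with compound for 19 h at 37° C in DMEM with 0.0125% BSA. Secreted Aβ42 measured overnight at 4° C by HTRF-type pairing of 565 (Aβ42 neoepitope) and 26D6 (N-terminal) antibodies. IC50 from curve fit.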

| IC50 [nM] | SMILES |
| --- | --- |
| 240 | Cc1nc(C)n(-c2ccc(Nc3nc4n(n3)CCCCC4c3ccc(OCC(F)F)cc3)cc2F)n1 (stereo not drawn) [Example 109, 9-(4-(2,2-difluoroethoxy)phenyl)-N-(4-(3,5-dimethyl-1H-1,2,4-triazol-1-yl)-3-fluorophenyl)-6,7,8,9-tetrahydro-5H-[1,2,4]triazolo[1,5-a]azepin-2-amine 2,2,2-trifluoroacetate] |
| 1000 | COc1cc(Nc2nc3n(n2)CCCCC3c2ccc(S(C)(=O)=O)cc2)ccc1-n1cnc(C)n1 (stereo not drawn) [Example 129, N-(3-methoxy-4-(3-methyl-1H-1,2,4-triazol-1-yl)phenyl)-9-(4-(methylsulfonyl)phenyl)-6,7,8,9-tetrahydro-5H-[1,2,4]-triazolo[1,5-a]azepin-2-amine 2,2,2-trifluoroacetate] |
| 70 | COc1cc(Nc2nc3n(n2)CCC(N(C)C)CC3c2ccc(F)cc2)ccc1-n1cnc(Cl)c1 (stereo not drawn) [Example 141, N2-(4-(4-chloro-1H-imidazol-1-yl)-3-methoxyphenyl)-9-(4-fluorophenyl)-N7,N7-dimethyl-6,7,8,9-tetrahydro-5H-[1,2,4]triazolo[1,5-a]azepine-2,7-diamine] |
| 16 | Cc1ncn(-c2ccc(Nc3nc4n(n3)CCC3(CC4c4ccc(F)cc4)OCCO3)cc2F)n1 (stereo not drawn) [Example 158, N-(3-fluoro-4-(3-methyl-1H-1,2,4-triazol-1-yl)phenyl)-9-(4-fluorophenyl)-5,6,8,9-tetrahydrospiro[[1,2,4]triazolo[1,5-a]azepine-7,2′-[1,3]dioxolan]-2-amine 2,2,2-trifluoroacetate] |

Same assay, conditions: 19 h, H4 APP751 SWE clone 8.20 cells, 19 h incubation; read-out: Activity Rating (based on Aβ42 cellular IC50 values)

| SMILES | IC50 [nM] |
| --- | --- |
| Cc1ncn(-c2ccc(Nc3nc4n(n3)CCCCC4c3ccc(OCC(F)(F)F)cc3)cc2F)n1 (stereo not drawn) [Example 113, N-(3-fluoro-4-(3-methyl-1H-1,2,4-triazol-1-yl)phenyl)-9-(4-(2,2,2-trifluoroethoxy)phenyl)-6,7,8,9-tetrahydro-5H-[1,2,4]triazolo[1,5-a]azepin-2-amine] | 10 to 100 |
| Cc1ncnn1-c1ccc(Nc2nc3n(n2)CCCCC3c2ccc(OCC(F)F)cc2)cc1F (stereo not drawn) [Example 119, 9-(4-(2,2-difluoroethoxy)phenyl)-N-(3-fluoro-4-(5-methyl-1H-1,2,4-triazol-1-yl)phenyl)-6,7,8,9-tetrahydro-5H-[1,2,4]triazolo[1,5-a]azepin-2-amine] | 10 to 100 |
| C=C1CCn2nc(Nc3ccc(-n4cnc(Cl)c4)c(OC)c3)nc2C(c2ccc(F)cc2)C1 (stereo not drawn) [Example 133, N-(4-(4-chloro-1H-imidazol-1-yl)-3-methoxyphenyl)-9-(4-fluorophenyl)-7-methylene-6,7,8,9-tetrahydro-5H-[1,2,4]triazolo[1,5-a]azepin-2-amine 2,2,2-trifluoroacetate] | 10 to 100 |
| COc1cc(Nc2nc3n(n2)CCC(F)(F)CC3c2ccc(F)cc2)ccc1-n1cnc(Cl)c1 (stereo not drawn) [Example 139, N-(4-(4-chloro-1H-imidazol-1-yl)-3-methoxyphenyl)-7,7-difluoro-9-(4-fluorophenyl)-6,7,8,9-tetrahydro-5H-[1,2,4]triazolo[1,5-a]azepin-2-amine 2,2,2-trifluoroacetate] | 10 to 100 |
| CNC1CCn2nc(Nc3ccc(-n4cnc(Cl)c4)c(OC)c3)nc2C(c2ccc(F)cc2)C1 (stereo not drawn) [Example 140, N2-(4-(4-chloro-1H-imidazol-1-yl)-3-methoxyphenyl)-9-(4-fluorophenyl)-N-7-methyl-6,7,8,9-tetrahydro-5H-[1,2,4]triazolo[1,5-a]azepine-2,7-diamine 2,2,2-trifluoroacetate] | 10 to 100 |
| COc1cc(Nc2nc3n(n2)CCC(N2CCC2)CC3c2ccc(F)cc2)ccc1-n1cnc(Cl)c1 (stereo not drawn) [Example 142, 7-(azetidin-1-yl)-N-(4-(4-chloro-1H-imidazol-1-yl)-3-methoxyphenyl)-9-(4-fluorophenyl)-6,7,8,9-tetrahydro-5H-[1,2,4]triazolo[1,5-a]azepin-2-amine] | 10 to 100 |
| COc1cc(Nc2nc3n(n2)CCC2(CC3c3ccc(F)cc3)OCCO2)ccc1-n1cnc(Cl)c1 (stereo not drawn) [Example 144, N-(4-(4-chloro-1H-imidazol-1-yl)-3-methoxyphenyl)-9-(4-fluorophenyl)-5,6,8,9-tetrahydrospiro[[1,2,4]triazolo[1,5-a]azepine-7,2′-[1,3]dioxolan]-2-amine 2,2,2-trifluoroacetate] | < 10 |
| COc1cc(Nc2nc3n(n2)CCC(OC)(OC)CC3c2ccc(F)cc2)ccc1-n1cnc(Cl)c1 (stereo not drawn) [Example 145, N-(4-(4-chloro-1H-imidazol-1-yl)-3-methoxyphenyl)-9-(4-fluorophenyl)-7,7-dimethoxy-6,7,8,9-tetrahydro-5H-[1,2,4]triazolo[1,5-a]azepin-2-amine] | < 10 |
| CCC1(O)CCn2nc(Nc3ccc(-n4cnc(Cl)c4)c(OC)c3)nc2C(c2ccc(F)cc2)C1 (stereo not drawn) [Example 146, 2-(4-(4-chloro-1H-imidazol-1-yl)-3-methoxyphenylamino)-7-ethyl-9-(4-fluorophenyl)-6,7,8,9-tetrahydro-5H-[1,2,4]triazolo[1,5-a]azepin-7-ol] | < 10 |
| COc1cc(Nc2nc3n(n2)CCCCC3c2ccccc2)ccc1-n1cnc(Cl)c1 (stereo not drawn) [Example 159, 2,2,2-trifluoroacetate] | < 10 |
| Cc1ncnn1-c1ccc(Nc2nc3n(n2)CCCCC3c2ccc(OC(F)(F)F)c(F)c2)cc1F (stereo not drawn) [Example 160, N-(3-fluoro-4-(5-methyl-1H-1,2,4-triazol-1-yl)phenyl)-9-(3-fluoro-4-(trifluoromethoxy)phenyl)-6,7,8,9-tetrahydro-5H-[1,2,4]triazolo[1,5-a]azepin-2-amine] | < 10 |

Next, values leading:

| IC50 [nM] | SMILES |
| --- | --- |
| 10 to 100 | Cc1ncnn1-c1ccc(Nc2nc3n(n2)CCCCC3c2ccc(OCC(F)(F)F)cc2)cc1F (stereo not drawn) [Example 110, N-(3-fluoro-4-(5-methyl-1H-1,2,4-triazol-1-yl)phenyl)-9-(4-(2,2,2-trifluoroethoxy)phenyl)-6,7,8,9-tetrahydro-5H-[1,2,4]triazolo[1,5-a]azepin-2-amine] |
| 10 to 100 | COc1cc(Nc2nc3n(n2)CCCCC3c2ccc(OCC(F)(F)F)cc2)c(F)cc1-n1cnc(C)n1 (stereo not drawn) [Example 116, N-(2-fluoro-5-methoxy-4-(3-methyl-1H-1,2,4-triazol-1-yl)phenyl)-9-(4-(2,2,2-trifluoroethoxy)phenyl)-6,7,8,9-tetrahydro-5H-[1,2,4]triazolo[1,5-a]azepin-2-amine] |
| 10 to 100 | Cc1ncn(-c2ccc(Nc3nc4n(n3)CCCC4c3ccc(OC(F)(F)F)cc3)cc2F)n1 (stereo not drawn) [Example 122, N-(3-fluoro-4-(3-methyl-1H-1,2,4-triazol-1-yl)phenyl)-8-(4-(trifluoromethoxy)phenyl)-5,6,7,8-tetrahydro-[1,2,4]triazolo[1,5-a]pyridin-2-amine 2,2,2-trifluoroacetate] |
| 10 to 100 | COc1cc(Nc2nc3n(n2)CCCCC3c2ccc(OC(F)F)cc2)ccc1-n1cnc(C)n1 (stereo not drawn) [Example 127, 9-(4-(difluoromethoxy)phenyl)-N-(3-methoxy-4-(3-methyl-1H-1,2,4-triazol-1-yl)phenyl)-6,7,8,9-tetrahydro-5H-[1,2,4]triazolo[1,5-a]azepin-2-amine 2,2,2-trifluoroacetate] |
| 10 to 100 | COc1cc(Nc2nc3n(n2)CCCCC3c2ccc(OC(F)(F)F)c(F)c2)ccc1-n1cnc(C)n1 (stereo not drawn) [Example 128, 9-(3-fluoro-4-(trifluoromethoxy)phenyl)-N-(3-methoxy-4-(3-methyl-1H-1,2,4-triazol-1-yl)phenyl)-6,7,8,9-tetrahydro-5H-[1,2,4]triazolo[1,5-a]azepin-2-amine 2,2,2-trifluoroacetate] |
| 10 to 100 | COc1cc(Nc2nc3n(n2)CCCCC3c2ccc(S(=O)(=O)C(F)(F)F)cc2)ccc1-n1cnc(C)n1 (stereo not drawn) [Example 130, N-(3-methoxy-4-(3-methyl-1H-1,2,4-triazol-1-yl)phenyl)-9-(4-(trifluoromethylsulfonyl)phenyl)-6,7,8,9-tetrahydro-5H-[1,2,4]triazolo[1,5-a]azepin-2-amine 2,2,2-trifluoroacetate] |
| 10 to 100 | CCOc1ccc(C2CCCCn3nc(Nc4ccc(-n5cnc(Cl)c5)c(OC)c4)nc32)cc1 (stereo not drawn) [Example 131, N-(4-(4-chloro-1H-imidazol-1-yl)-3-methoxyphenyl)-9-(4-ethoxyphenyl)-6,7,8,9-tetrahydro-5H-[1,2,4]triazolo[1,5-a]azepin-2-amine 2,2,2-trifluoroacetate] |
| 10 to 100 | CCOc1ccc(C2CCCCn3nc(Nc4ccc(-n5cnc(C)n5)c(OC)c4)nc32)cc1 (stereo not drawn) [Example 132, 9-(4-ethoxyphenyl)-N-(3-methoxy-4-(3-methyl-1H-1,2,4-triazol-1-yl)phenyl)-6,7,8,9-tetrahydro-5H-[1,2,4]triazolo[1,5-a]azepin-2-amine 2,2,2-trifluoroacetate] |
| < 10 | COc1cc(Nc2nc3n(n2)CCC(C)CC3c2ccc(F)cc2)ccc1-n1cnc(Cl)c1 (stereo not drawn) [Example 136, N-(4-(4-chloro-1H-imidazol-1-yl)-3-methoxyphenyl)-9-(4-fluorophenyl)-7-methyl-6,7,8,9-tetrahydro-5H-[1,2,4]triazolo[1,5-a]azepin-2-amine] |
| < 10 | COc1cc(Nc2nc3n(n2)CCC(=O)CC3c2ccc(F)cc2)ccc1-n1cnc(Cl)c1 (stereo not drawn) [Example 137, 2-(4-(4-chloro-1H-imidazol-1-yl)-3-methoxyphenylamino)-9-(4-fluorophenyl)-8,9-dihydro-5H-[1,2,4]triazolo[1,5-a]azepin-7(6H)-one 2,2,2-trifluoroacetate] |
| 10 to 100 | CO/N=C1/CCn2nc(Nc3ccc(-n4cnc(Cl)c4)c(OC)c3)nc2C(c2ccc(F)cc2)C1 (stereo not drawn) [Example 138, (E)-2-(4-(4-chloro-1H-imidazol-1-yl)-3-methoxyphenylamino)-9-(4-fluorophenyl)-8,9-dihydro-5H-[1,2,4]triazolo[1,5-a]azepin-7(6H)-one O-methyl oxime 2,2,2-trifluoroacetate] |
| 10 to 100 | COc1cc(Nc2nc3n(n2)CCC(N2CCCC2)CC3c2ccc(F)cc2)ccc1-n1cnc(Cl)c1 (stereo not drawn) [Example 143, N-(4-(4-chloro-1H-imidazol-1-yl)-3-methoxyphenyl)-9-(4-fluorophenyl)-7-(pyrrolidin-1-yl)-6,7,8,9-tetrahydro-5H-[1,2,4]triazolo[1,5-a]azepin-2-amine] |
